# Measured values from ChEMBL document CHEMBL2434896, “Carbonic anhydrase inhibitors. Synthesis of heterocyclic 4-substituted pyridine-3-sulfonamide derivatives and their inhibition of the human cytosolic isozymes I and II and transmembrane tumor-associated isozymes IX and XII” (Eur J Med Chem, 2013).
# Calls of active or inactive are those of the source. The calls are words filed in the database; no cut-off is given here.
# Legend:
# Malme-3M = assay: Growth inhibition of human MALME-3M cells at 10 uM after 48 hrs by sulforhodamine B assay; assay type: functional
# LOX IMVI = assay: Growth inhibition of human LOXIMVI cells at 10 uM after 48 hrs by sulforhodamine B assay; assay type: functional; conditions: read-out: GI
# U-251 = assay: Growth inhibition of human U251 cells at 10 uM after 48 hrs by sulforhodamine B assay; assay type: functional
# SNB-75 = assay: Growth inhibition of human SNB75 cells at 10 uM after 48 hrs by sulforhodamine B assay; assay type: functional; conditions: SNB-75, 48 h, read-out: GI
# KM12 = assay: Growth inhibition of human KM12 cells at 10 uM after 48 hrs by sulforhodamine B assay; assay type: functional; conditions: KM12, 48 h, read-out: GI
# SW-620 = assay: Growth inhibition of human SW620 cells at 10 uM after 48 hrs by sulforhodamine B assay; assay type: functional
# HT-29 = assay: Growth inhibition of human HT-29 cells at 10 uM after 48 hrs by sulforhodamine B assay; assay type: functional
# HCT-15 = assay: Growth inhibition of human HCT15 cells at 10 uM after 48 hrs by sulforhodamine B assay; assay type: functional; conditions: HCT-15, 48 h, read-out: GI
# HCT-116 = assay: Growth inhibition of human HCT116 cells at 10 uM after 48 hrs by sulforhodamine B assay; assay type: functional
# COLO 205 = assay: Growth inhibition of human COLO205 cells at 10 uM after 48 hrs by sulforhodamine B assay; assay type: functional
# NCI-H522 = assay: Growth inhibition of human NCI-H522 cells at 10 uM after 48 hrs by sulforhodamine B assay; assay type: functional; conditions: NCI-H522, 48 h, read-out: GI
# NCI-H322M = assay: Growth inhibition of human NCI-H322M cells at 10 uM after 48 hrs by sulforhodamine B assay; assay type: functional
# NCI-H23 = assay: Growth inhibition of human NCI-H23 cells at 10 uM after 48 hrs by sulforhodamine B assay; assay type: functional
# HOP-92 = assay: Growth inhibition of human HOP92 cells at 10 uM after 48 hrs by sulforhodamine B assay; assay type: functional
# HOP-62 = assay: Growth inhibition of human HOP62 cells at 10 uM after 48 hrs by sulforhodamine B assay; assay type: functional; conditions: HOP-62, 48 h, read-out: GI
# A549 = assay: Growth inhibition of human A549/ATCC cells at 10 uM after 48 hrs by sulforhodamine B assay; assay type: functional; conditions: A549, 48 h, read-out: GI
# SR = assay: Growth inhibition of human SR cells at 10 uM after 48 hrs by sulforhodamine B assay; assay type: functional; conditions: read-out: GI
# RPMI-8226 = assay: Growth inhibition of human RPMI8226 cells at 10 uM after 48 hrs by sulforhodamine B assay; assay type: functional
# MOLT-4 = assay: Growth inhibition of human MOLT4 cells at 10 uM after 48 hrs by sulforhodamine B assay; assay type: functional; conditions: MOLT-4, 48 h, read-out: GI
# K562 = assay: Growth inhibition of human K562 cells at 10 uM after 48 hrs by sulforhodamine B assay; assay type: functional
# HL-60(TB) = assay: Growth inhibition of human HL-60(TB) cells at 10 uM after 48 hrs by sulforhodamine B assay; assay type: functional; conditions: HL-60, 48 h, read-out: GI
# CCRF-CEM = assay: Growth inhibition of human CCRF-CEM cells at 10 uM after 48 hrs by sulforhodamine B assay; assay type: functional
# MDA-MB-468 = assay: Growth inhibition of human MDA-MB-468 cells at 10 uM after 48 hrs by sulforhodamine B assay; assay type: functional
# T47D = assay: Growth inhibition of human T47D cells at 10 uM after 48 hrs by sulforhodamine B assay; assay type: functional; conditions: read-out: GI
# BT-549 = assay: Growth inhibition of human BT549 cells at 10 uM after 48 hrs by sulforhodamine B assay; assay type: functional; conditions: BT-549, 48 h, read-out: GI
# Hs-578T = assay: Growth inhibition of human Hs 578T cells at 10 uM after 48 hrs by sulforhodamine B assay; assay type: functional
# MDA-MB-231 = assay: Growth inhibition of human MDA-MB-231 cells at 10 uM after 48 hrs by sulforhodamine B assay; assay type: functional
# MCF7 = assay: Growth inhibition of human MCF7 cells at 10 uM after 48 hrs by sulforhodamine B assay; assay type: functional
# DU-145 = assay: Growth inhibition of human DU145 cells at 10 uM after 48 hrs by sulforhodamine B assay; assay type: functional
# PC-3 = assay: Growth inhibition of human PC3 cells at 10 uM after 48 hrs by sulforhodamine B assay; assay type: functional; conditions: PC-3, 48 h, read-out: GI
# TK-10 = assay: Growth inhibition of human TK10 cells at 10 uM after 48 hrs by sulforhodamine B assay; assay type: functional
# SN12C = assay: Growth inhibition of human SN12C cells at 10 uM after 48 hrs by sulforhodamine B assay; assay type: functional
# RXF 393 = assay: Growth inhibition of human RXF393 cells at 10 uM after 48 hrs by sulforhodamine B assay; assay type: functional
# ACHN = assay: Growth inhibition of human ACHN cells at 10 uM after 48 hrs by sulforhodamine B assay; assay type: functional
# A498 = assay: Growth inhibition of human A498 cells at 10 uM after 48 hrs by sulforhodamine B assay; assay type: functional; conditions: A498, 48 h, read-out: GI
# 786-0 = assay: Growth inhibition of human 786-0 cells at 10 uM after 48 hrs by sulforhodamine B assay; assay type: functional
# OVCAR-8 = assay: Growth inhibition of human OVCAR8 cells at 10 uM after 48 hrs by sulforhodamine B assay; assay type: functional
# OVCAR-5 = assay: Growth inhibition of human OVCAR5 cells at 10 uM after 48 hrs by sulforhodamine B assay; assay type: functional; conditions: OVCAR-5, 48 h, read-out: GI
# OVCAR-4 = assay: Growth inhibition of human OVCAR4 cells at 10 uM after 48 hrs by sulforhodamine B assay; assay type: functional
# OVCAR-3 = assay: Growth inhibition of human OVCAR3 cells at 10 uM after 48 hrs by sulforhodamine B assay; assay type: functional
# IGROV-1 = assay: Growth inhibition of human IGROV1 cells at 10 uM after 48 hrs by sulforhodamine B assay; assay type: functional
# UACC-62 = assay: Growth inhibition of human UACC62 cells at 10 uM after 48 hrs by sulforhodamine B assay; assay type: functional
# SK-MEL-5 = assay: Growth inhibition of human SK-MEL-5 cells at 10 uM after 48 hrs by sulforhodamine B assay; assay type: functional
# SK-MEL-28 = assay: Growth inhibition of human SK-MEL-28 cells at 10 uM after 48 hrs by sulforhodamine B assay; assay type: functional, cell-based
# SK-MEL-2 = assay: Growth inhibition of human SK-MEL-2 cells at 10 uM after 48 hrs by sulforhodamine B assay; assay type: functional
# MDA-MB-435 = assay: Growth inhibition of human MDA-MB-435 cells at 10 uM after 48 hrs by sulforhodamine B assay; assay type: functional
# M14 = assay: Growth inhibition of human M14 cells at 10 uM after 48 hrs by sulforhodamine B assay; assay type: functional; conditions: M14, 48 h, read-out: GI
compound,measurement,setting,value
NS(=O)(=O)c1cnccc1N1CCN(Cc2ccc3c(c2)OCO3)CC1,growth inhibition (GI),Malme-3M,inactive
same,inhibition of growth at 10 µM,LOX IMVI,8%
same,growth inhibition (GI),U-251,inactive
same,inhibition of growth at 10 µM,SNB-75,9%
same,inhibition of growth at 10 µM,KM12,1%
same,growth inhibition (GI),SW-620,inactive
same,growth inhibition (GI),HT-29,inactive
same,inhibition of growth at 10 µM,HCT-15,1%
same,growth inhibition (GI),HCT-116,inactive
same,growth inhibition (GI),COLO 205,inactive
same,inhibition of growth at 10 µM,NCI-H522,2%
same,growth inhibition (GI),NCI-H322M,inactive
same,growth inhibition (GI),NCI-H23,inactive
same,growth inhibition (GI),HOP-92,inactive
same,inhibition of growth at 10 µM,HOP-62,5%
same,inhibition of growth at 10 µM,A549,2%
same,inhibition of growth at 10 µM,SR,9%
same,growth inhibition (GI),RPMI-8226,inactive
same,inhibition of growth at 10 µM,MOLT-4,5%
same,growth inhibition (GI),K562,inactive
same,inhibition of growth at 10 µM,HL-60(TB),7%
same,growth inhibition (GI),CCRF-CEM,inactive
same,growth inhibition (GI),MDA-MB-468,inactive
same,inhibition of growth at 10 µM,T47D,6%
same,inhibition of growth at 10 µM,BT-549,7%
same,growth inhibition (GI),Hs-578T,inactive
same,growth inhibition (GI),MDA-MB-231,inactive
same,growth inhibition (GI),MCF7,inactive
same,growth inhibition (GI),DU-145,inactive
same,inhibition of growth at 10 µM,PC-3,1%
same,growth inhibition (GI),TK-10,inactive
same,growth inhibition (GI),SN12C,inactive
same,growth inhibition (GI),RXF 393,inactive
same,growth inhibition (GI),ACHN,inactive
same,inhibition of growth at 10 µM,A498,10%
same,growth inhibition (GI),786-0,inactive
same,growth inhibition (GI),OVCAR-8,inactive
same,inhibition of growth at 10 µM,OVCAR-5,2%
same,growth inhibition (GI),OVCAR-4,inactive
same,growth inhibition (GI),OVCAR-3,inactive
same,growth inhibition (GI),IGROV-1,inactive
same,growth inhibition (GI),UACC-62,inactive
same,growth inhibition (GI),SK-MEL-5,inactive
same,growth inhibition (GI),SK-MEL-28,inactive
same,growth inhibition (GI),SK-MEL-2,inactive
same,growth inhibition (GI),MDA-MB-435,inactive
same,inhibition of growth at 10 µM,M14,2%
